Laboratory results: patent publication US7541331B2, “Surfactant treatment regimen” (Discovery Laboratories, Inc., priority 2005, dated 2009)

Test system: premature neonates
Experiment: Pilot phase 2 open study of lucinactant delivered as an aerosol via nCPAP for prevention of RDS
Details: in vivo
Experimental: This example provides a protocol for administration of lucinactant as an aerosol via nCPA to premature infants. This protocol has been used in a pilot phase 2, open study to evaluate the feasibility, safety, and tolerability of lucinactant delivered as an aerosol via nCPAP for the prevention of RDS in premature neonates.
Lucinactant was administered using an approved vibrating machine device (Aeroneb-Pro® or equivalent) and delivered via nCPAP within 30 minutes of birth. In a first treatment group, 20 mg/ml of lucinactant was administered within the first 30 minutes of life continually over three hours. Up to three retreatments were permitted over a 48 hour period, with each treatment separated by at least 3 hours (from end of previous treatment). In a second treatment group, 20 mg/ml of lucinactant was administered within the first 30 minutes of life continually over three hours. Up to three retreatments were permitted over a 48 hour period, with each treatment separated by at least one hours (from end of previous treatment).
Qualified premature neonates were sequentially enrolled and stratified by gestational age (stratum 1:30-32 completed weeks followed by stratum 2:28-29 completed weeks) into the first treatment regimen group (3 hours on aerosol treatment/3 hours off aerosol treatment) and received aerosolized lucinactant via nCPAP. Safety and tolerability data were evaluated after enrollment of every five neonates. Once enrollment in the first treatment group was completed, neonates were sequentially enrolled and stratified into the second treatment group (3 hours on aerosol treatment/1 hours off aerosol treatment). All neonates enrolled were evaluated through 28 days of age.

Substance: lucinactant
- adverse effects considered related to both study drug and the device: 35.3%
- adverse effects considered related to study drug: 47.1%
- adverse effects considered related to the device: 11.8%
- incidence of apnea: 94.1%
- incidence of hypocalcemia: 29.4%
- incidence of oxygen saturation decreased: 70.6%
- incidence of patent ductus arteriosus: 35.3%
- safety and tolerability of treatment: generally safe and well tolerated
- serious adverse effects considered related to the device: Two
- total adverse effects reported: 83
- total serious adverse effects reported: 5
